{"source": "patent US9814720B2", "about": "“Compositions and methods of inhibiting IL-17 expression of neutrophils” (priority 2014, dated 2017)", "key": {"[1]": {"test_system": "bone marrow-derived murine neutrophils", "assay": "ROS production (CFDA) by murine bone marrow neutrophils incubated with Aspergillus hyphae", "format": "cell-based, C57BL/6 mice", "conditions": "IL-6/23-stimulated, inhibitor 20 μM, FIG. 6C", "method": "Murine and human neutrophils were incubated with p-STAT3 (20 μM Stattic or 20 μM INC424) or RORγt inhibitors (20 μM SR1001) for 2 h. Then the cells were stimulated with […] of rIL-6 and 2 μg/ml of rIL-23 for 3 h, washed, and 2×10^5 bone marrow-derived murine neutrophils or 10^5 human peripheral blood neutrophils, with or without recombinant IL-17A, were added to each well with growing hyphae. RPMI media was used as positive control (unimpaired growth), and PBS was used as a negative control (no growth (data not shown)). After 16 h the wells were washed with PBS and the dsRed fungal mass was quantified in a 96-well fluorometer at 550/600 nm excitation/emission filter (Synergy HT, Biotek).\nIn vitro ROS production measured by CFDA was previously described. Briefly, 100 μg/100 μl of A. fumigatus hyphal extract (AspHE) were incubated with 2×10^5 murine or human neutrophils. Neutrophils were treated for 1 h with 1 μM Carboxyfluorescein diacetate (H2CFDA (Sigma)), which will fluoresce following ROS oxidation. Neutrophils were collected and analyzed by flow cytometry. H2CFDA pulsed neutrophils that had not been incubated with AspHE were used to set the ROS histogram gate. The average mean intensity was calculated by Accuri flow software and graphed in Prism."}, "RORγt": {"test_system": "RORγt", "assay": "RORγt nuclear translocation in IL-6/23-stimulated murine neutrophils (confocal imaging)", "format": "cell-based, C57BL/6 mice", "conditions": "IL-6+IL-23 stimulated, inhibitor 20 μM, FIG. 4D", "source_text": "Total bone marrow-derived cells were isolated from mouse femurs and tibias by flushing with RPMI and an 18-gauge needle. Erythrocytes were lysed with 1× lysis buffer (eBioscience), and bone marrow cells were separated on a Percoll (Fisher) gradient by density centrifugation (52%, 69%, and 78%). Cells at the 69-78% interface were harvested, and neutrophil purity (>98%) confirmed by flow cytometry and Wright-Giemsa staining. Murine or human neutrophils were suspended at a density of 10^6 cells/ml and incubated with […] of recombinant mouse or human IL-6 and 2 μg/ml IL-23 in RPMI, and the cells were maintained for 1-3 h at 37° C. in 5% CO2. Various inhibitors were used for assessing STAT3 activation. […] For the determination of RORγt-dependent signaling, SR1001 (20 μM; Sigma) was used, which inhibits RORγt binding to the IL-17 promoter site. All inhibitors were added to neutrophils 2 h prior to recombinant IL-6 and IL-23 stimulation. Corneas were dissected and incubated for 1 h at 37° C. in collaganese (80 U/ml) (C0130; Sigma-Aldrich), and washed in FACS buffer (PBS+1% FBS+0.5% Sodium azide). Ten corneas were pooled and analyzed by intracellular flow cytometry. Conversely, bone marrow cells or neutrophils were collected as described above and washed in FACS buffer. […] Cells were analyzed using a C6 Accuri flow cytometer (BD). […]"}, "IL-17RC": {"test_system": "IL-17RC", "assay": "IL-17RC gene expression by qPCR in IL-6/23-stimulated human neutrophils", "format": "cell-based", "conditions": "IL-6/23 1 h, FIG. 6B", "method": "Neutrophils were isolated from peripheral blood of healthy donors. Peripheral blood was incubated in 3% Dextran, and neutrophils isolated by Ficoll gradient centrifugation (Fisher Scientific), with neutrophil purity determined by staining with Wright-Giemsa.\nMurine or human neutrophils were suspended at a density of 10^6 cells/ml and incubated with […] of recombinant mouse or human IL-6 and 2 μg/ml IL-23 in RPMI, and the cells were maintained for 1-3 h at 37° C. in 5% CO2. Various inhibitors were used for assessing STAT3 activation. For STAT3, neutrophils were treated with either the STAT3-SH2 inhibitor, Stattic (20 μM) obtained from Tocris, or the JAK-1, 2 inhibitor, INC424, (aka Ruxolitinib; 20 μM (Selleck BioChem)). For the determination of RORγt-dependent signaling, SR1001 (20 μM; Sigma) was used, which inhibits RORγt binding to the IL-17 promoter site. All inhibitors were added to neutrophils 2 h prior to recombinant IL-6 and IL-23 stimulation.\nNeutrophil and corneal cell RNA was extracted using the RNeasy mini kit according to the manufacturer's directions (Qiagen, Valencia, Calif.). The quality of RNA was checked by spectrophotometry, and only samples with a 260/280 ratio of 2.0 were used to generate cDNA. The SuperScript First Strand synthesis system (Invitrogen) was used to generate cDNA according to the manufacturer's directions.\nThe SYBR green system (Applied Biosystems, Carlsbad, Calif.) was utilized for quantitative PCR (qPCR) using ABI Biosystems. PCR products were then run on a 1% agarose gel, and visualized using ethidium bromide. PCR products were compared to Actb (encoding the β-actin gene) or GAPDH as the controls for gel loading."}}, "data": [{"compound": "O=[N+]([O-])c1ccc2c(c1)S(=O)(=O)C=C2", "note": "[Stattic]", "values": [{"measurement": "ROS production", "setting": "[1]; plus rIL-17A", "result": "ROS production was increased"}, {"measurement": "ROS production", "setting": "[1]; without rIL-17A", "result": "not increased above the level produced by naïve neutrophils"}, {"measurement": "RORγt localisation (cytoplasm vs nucleus)", "setting": "RORγt", "result": "only detected in the cytoplasm"}, {"measurement": "IL-17RC expression", "setting": "IL-17RC", "result": "did not inhibit"}]}]}
